Results: patent US10548856B2, “Compounds and methods for modulating serotonin receptors in the periphery” (Northeastern University, priority 2015, dated 2020)
Like-named read-outs stand apart in the source and are kept apart here.

Experiments:
Human 5-HT7 = biological target: T1, Human 5-HT7 (Homo sapiens, UniProt P34969); test: In vitro binding affinity to serotonin 5-HT7 receptors using HEK293 cells
T1 construct: expressed in transfected cells; host or cells: HEK293
Text: 2015, 6, 1259-1270. The compounds are tertiary amines and available to bind 5-HT7 receptors both in the brain and in the periphery. Each of the compounds can be derivatized to a corresponding positively-charged quaternary amine, for example, by the addition of a third alkyl group, R3, to render it impermeable to the blood-brain barrier and specific for peripheral 5-HT7 receptors.

[1] = Plasma and brain concentrations after subcutaneous administration (LC-MS/MS); format: in vivo, C57Bl/6J mice; details: for concentration at 30 min / concentration at 60 min / concentration at 90 min: male, C57Bl/6J, mouse, 3.0 mg/kg subcutaneous, mice, mean (SEM); for concentration at 30 min: 30 min after injection; for concentration at 60 min: 60 min after injection; for concentration at 90 min: 90 min after injection
Description: At 30, 60, or 90 min later, mice were euthanized by rapid cervical dislocation and decapitation. Trunk blood was collected in pre-chilled, heparin-coated tubes. Brains were quickly excised and frozen in liquid nitrogen. Plasma was collected from blood after centrifugation for 5 min at 13,000 g. Whole brain samples were wrapped in foil, and brain and plasma samples were labeled and stored at −80° C. until liquid chromatography-mass spectrometry/mass spectrometry (LC-MS/MS) assays were performed. Frozen brain samples were weighed and homogenized in phosphate buffered saline (PBS), pH 7.4. After the first analysis, the extra brain homogenate was stored at −80° C. until they were thawed for a second, more dilute, analysis. Plasma samples were used directly upon arrival. The proteins from each plasma sample and a portion of each brain homogenate were immediately precipitated with 1:1 methanol:acetonitrile (4× starting volume) and internal standard ((−)-MBP^68) followed by centrifugation at 14,000 g for 5 minutes at 4° C. The resulting supernatants from each sample were dried under nitrogen. Each sample was reconstituted in methanol, vortexed, sonicated briefly, and centrifuged prior to LC-MS/MS analysis. Calibration curves were constructed from the ratios of the peak areas of 5-FPT versus (−)-MBP in extracted standards made in mouse plasma or homogenized mouse brain.
LC-MS/MS analysis was performed using an Agilent 1100 series HPLC and a Thermo Finnigan Quantum Ultra triple quad mass spectrometer. The mobile phases used were 0.1% formic acid in water (A) and 0.1% formic acid in methanol (B) in a 5 minute gradient. Samples of 10 μL each were injected onto a Phenomenex Gemini C18 column (2×50 mm, 5μ) with a C18 guard column. 5-FPT and its internal standard ((−)-MBP) were ionized in ESI+ and detected in SRM mode. Internal standards were used for quantification of the compound level per g tissue or per μL plasma. Four mice were included per group, but plasma levels from one mouse were not detectable due to low volume of blood collected.

DOI HTR = test: Attenuation of the DOI HTR; format: in vivo; details: 5.6 mg/kg
[2] = brain, read-out: Brain concentration
[3] = plasma, read-out: Plasma concentration

T1 sequence (P34969 1-445 isoform P34969-2): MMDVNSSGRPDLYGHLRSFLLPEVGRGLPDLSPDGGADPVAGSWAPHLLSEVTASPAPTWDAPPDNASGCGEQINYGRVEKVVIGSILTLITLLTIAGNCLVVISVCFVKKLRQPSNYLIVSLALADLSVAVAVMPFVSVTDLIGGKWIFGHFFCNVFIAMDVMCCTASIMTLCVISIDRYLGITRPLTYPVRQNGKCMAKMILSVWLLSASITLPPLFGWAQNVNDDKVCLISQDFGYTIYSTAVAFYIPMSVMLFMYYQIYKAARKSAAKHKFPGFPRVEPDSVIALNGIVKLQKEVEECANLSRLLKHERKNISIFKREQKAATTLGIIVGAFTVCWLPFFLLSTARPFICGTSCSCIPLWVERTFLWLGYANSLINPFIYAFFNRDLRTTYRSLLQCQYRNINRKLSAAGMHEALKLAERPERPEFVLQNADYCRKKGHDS

Compound	Ki (Human 5-HT7) [nM]	other results
COc1cc(-c2ccccc2)c2c(c1OC)CC(N(C)C)CC2 (racemic) [(R/S)-Methyl / 7,8-diOMe-5-Phenyl]	> 10000	
CN(C)C1CCc2c(cccc2C2CCCC2)C1 (racemic) [(R/S)-Methyl / Cyclopentyl]	240 ± 35	
CN(C)C1CCc2c(cccc2OCc2ccccc2)C1 (racemic) [(R/S)-Methyl / O-Benzyl]	> 10000	
CN(C)C1CCc2c(cccc2-c2ccc(F)cc2Cl)C1 (racemic) [(R/S)-Methyl / Phenyl-2′-Cl-4′-F]	30 ± 10	
CN(C)C1CCc2c(cccc2-c2cc(Cl)cc(Cl)c2)C1 (racemic) [(R/S)-Methyl / Phenyl-3′,5′-Cl]	40 ± 60	
CN(C)C1CCc2c(cccc2-c2cc(F)cc(F)c2)C1 (racemic) [(R/S)-Methyl / Phenyl-3′,5′-F]	180 ± 32	
CN(C)C1CCc2c(cccc2-c2cccc(C(F)(F)F)c2)C1 (racemic) [(R/S)-Methyl / Phenyl-3′-CF3]	63 ± 6.6	
CN(C)C1CCc2c(cccc2-c2cccc(Cl)c2)C1 (racemic) [(R/S)-Methyl / Phenyl-3′-Cl]	18 ± 2.4	
CN(C)C1CCc2c(cccc2-c2cccc(F)c2)C1 (racemic) [(R/S)-Methyl / Phenyl-3′-F]	34 ± 6.2	
COc1cccc(-c2cccc3c2CCC(N(C)C)C3)c1 (racemic) [(R/S)-Methyl / Phenyl-3′-OMe]	37 ± 9	
CN(C)C1CCc2c(cccc2-c2ccc(F)cc2)C1 (racemic) [(R/S)-Methyl / Phenyl-4′-F]	120 ± 17	
CN(C)C1CCc2c(cccc2-c2ccccc2F)C1 (single isomer, unassigned; (+)) [(+)-5-FPT, 5-(2′-fluorophenyl)-N,N-dimethyl-1,2,3,4-tetrahydronaphthalen-2-amine]		Blood-brain barrier crossing ([1]; 30, 60 and 90 min after systemic administration): readily crosses the blood-brain barrier; Clearance in the periphery (plasma relative to brain levels) ([1]; as soon as 30 min post-administration): rapidly cleared in the periphery; concentration at 30 min [1, 2]: 1780 ng/g; concentration at 60 min [1, 2]: 2160 ng/g; concentration at 90 min [1, 2]: 1460 ng/g; concentration at 30 min [1, 3]: 114 ng/mL; concentration at 60 min [1, 3]: 118 ng/mL; concentration at 90 min [1, 3]: 70 ng/mL; Time for which attenuating effect on the DOI HTR remained significant (DOI HTR): up to 2 hrs; Block of the DOI HTR (DOI HTR; 3 hrs. post-administration): did not block the DOI HTR
CN(C)[C@@H]1CCc2c(cccc2-c2ccccc2Cl)C1 [(R)-Methyl / Phenyl-2′-Cl]	58 ± 12	
CN(C)[C@@H]1CCc2c(cccc2-c2ccccc2F)C1 [(R)-Methyl / Phenyl-2′-F]	260 ± 53	
CN(C)[C@@H]1CCc2c(cccc2-c2ccccc2)C1 [(R)-Methyl / Phenyl]	4400 ± 930	
CCCN(CCC)[C@@H]1CCc2c(cccc2-c2ccccc2F)C1 [(R)-Propyl / 2′-F-Phenyl]	63 ± 2.7	
CCCN(CCC)[C@@H]1CCc2c(cccc2-c2ccccc2)C1 [(R)-Propyl / Phenyl]	180 ± 31	
CN(C)[C@H]1CCc2c(cccc2-c2ccc(Cl)cc2)C1 [(S)-Methyl / Pheny-4′-Cl]	72 ± 5.8	
CN(C)[C@H]1CCc2c(cccc2-c2ccccc2Cl)C1 [(S)-Methyl / Phenyl-2′-Cl]	6 ± 0.6	
CN(C)[C@H]1CCc2c(cccc2-c2ccccc2F)C1 [(S)-Methyl / Phenyl-2′-F]	6 ± 0.7	
CN(C)[C@H]1CCc2c(cccc2-c2cc(C(F)(F)F)cc(C(F)(F)F)c2)C1 [(S)-Methyl / Phenyl-3′,5′-CF3]	910 ± 260	
CN(C)[C@H]1CCc2c(cccc2-c2ccccc2)C1 [(S)-Methyl / Phenyl]	9 ± 0.4	
CCCN(CCC)[C@H]1CCc2c(cccc2-c2ccccc2F)C1 [(S)-Propyl / 2′-F-Phenyl]	35 ± 5.2	
CCCN(CCC)[C@H]1CCc2c(cccc2-c2ccccc2)C1 [(S)-Propyl / Phenyl]	83 ± 5.8	
